Data set [1] can be described thus: solubility of pitavastatin depending on pH. It counts as physicochemical. The following applies: acidic pH conditions.
A short description of data set [2]: degradation kinetics of fluvastatin in aqueous solution at various pH. It counts as physicochemical. The source says:
Certain HMG-CoA reductase inhibitors are extremely susceptible to degradation at pH below about 8. An example of such a compound comprises the compound having the USAN designation fluvastatin sodium (hereinafter “fluvastatin”), of the chemical designation: R*,S*-(E)(±)-7-[3-(4-fluorophenyl)-1-(1-methyl-ethyl)-1H-indol-2-yl]-3,5-dihydroxy-6-heptenoic acid, sodium salt, [see European Patent Application EP-A-114027].
For example, the degradation kinetics of fluvastatin in aqueous solution at various pH is illustrated below:
The above-indicated instability of fluvastatin and related HMG-CoA reductase compounds is believed to be due to the extreme lability of the β,δ-hydroxy groups on the heptenoic acid chain and the presence of the double bond, such that at neutral to acidic pH, the compounds readily undergo elimination or isomerization or oxidation reactions to form conjugated unsaturated aromatic compounds, as well as the threo isomer, the corresponding lactones, and other degradation products.

Counter-ions that a name gives are not always drawn.

On to `O=C(O)C[C@H](O)C[C@H](O)/C=C/c1c(C2CC2)nc2ccccc2c1-c1ccc(F)cc1` [pitavastatin], for which the solubility of pitavastatin result in data set [1] was “higher”.
Turning to `CC(C)n1c(/C=C/C(O)CC(O)CC(=O)O)c(-c2ccc(F)cc2)c2ccccc21` (stereo not drawn) [fluvastatin, R*,S*-(E)(±)-7-[3-(4-fluorophenyl)-1-(1-methyl-ethyl)-1H-indol-2-yl]-3,5-dihydroxy-6-heptenoic acid, sodium salt], the “% fluvastatin remaining at 37° C.” value in data set [2] (pH 1.0, after 1 hour) amounted to 10.9%; in data set [2] (pH 1.0, after 24 hrs), 0%; in data set [2] (pH 4.0, after 1 hour), 86.7%; in data set [2] (pH 4.0, after 24 hrs) it was 25.2%; in data set [2] (pH 6.0, after 1 hour) it was 99.6%; in data set [2] (pH 6.0, after 24 hrs), 97.1%. The “% fluvastatin remaining at 37° C.” value in data set [2] (pH 7.8, after 1 hour) is recorded as 98.3%; in data set [2] (pH 7.8, after 24 hrs), 98.0%.

Values taken from patent US20070218134A1, “Compositions Comprising Organic Compounds” (priority 2003, published 2007).
